Like-named read-outs stand apart in the source and are kept apart here.
Target: Recombinant human BRD4(1-477) (Homo sapiens (Human), UniProt O60885)
Experiment: BRD4 TR-FRET biochemical IC50 assay
Format: binding
Conditions: tetra-acetylated histone peptide

| Compound | IC50 (TR-FRET, read-out: BRD4 IC50) [nM] | IC50 (BRD4 IC50, TR-FRET) [nM] |
| --- | --- | --- |
| Cc1noc(C)c1-c1ccc2c(c1)C(O)(c1ccccc1)C(=O)N2 (single isomer, unassigned) [Compound 1.1b, 5-(3,5-dimethylisoxazol-4-yl)-3-hydroxy-3-phenylindolin-2-one] | 7000 | – |
| Cc1noc(C)c1-c1ccc2c(c1)C(O)(C1CCCCC1=O)C(=O)N2 (single isomer, unassigned) [Compound 1.30b, 5-(3,5-Dimethylisoxazol-4-yl)-3-hydroxy-3-(2-oxocyclohexyl)indolin-2-one] | 650 | – |
| Cc1noc(C)c1-c1ccc2c(c1)C(N[C@@H](CO)c1ccccc1)(c1ccccc1)C(=O)N2 (single isomer, unassigned) [Compound 2.7a] | > 10000 | – |
| Cc1noc(C)c1-c1ccc2c(c1)C(N[C@@H](CO)c1ccccc1)(c1ccccc1)C(=O)N2 (single isomer, unassigned) [Compound 2.7b] | 810 | – |
| Cc1noc(C)c1-c1ccc2c(c1)C(N[C@H](CO)c1ccccc1)(c1ccccc1)C(=O)N2 (single isomer, unassigned) [Compound 2.8a] | 510 | – |
| Cc1noc(C)c1-c1ccc2c(c1)C(N[C@H](CO)c1ccccc1)(c1ccccc1)C(=O)N2 (single isomer, unassigned) [Compound 2.8b] | 2200 | – |
| Cc1noc(C)c1-c1ccc2c(c1)C(N[C@@H](CO)C(C)C)(c1ccccc1)C(=O)N2 (single isomer, unassigned) [Compound 2.11a] | 3600 | – |
| Cc1noc(C)c1-c1ccc2c(c1)C(N[C@H](CO)C(C)C)(c1ccccc1)C(=O)N2 (single isomer, unassigned) [Compound 2.12b] | 3400 | – |
| Cc1noc(C)c1-c1ccc2c(c1)C(NC[C@@H](C)O)(c1ccccc1)C(=O)N2 (single isomer, unassigned) [Compound 2.13a] | 710 | – |
| Cc1noc(C)c1-c1ccc2c(c1)C(NC[C@H](C)O)(c1ccccc1)C(=O)N2 (single isomer, unassigned) [Compound 2.14b] | 610 | – |
| Cc1noc(C)c1-c1ccc2c(c1)C(N[C@H](CO)C(C)C)(C1CCCCC1)C(=O)N2 (single isomer, unassigned) [Compound 2.19a] | > 10000 | – |
| Cc1noc(C)c1-c1ccc2c(c1)C(N[C@@H](CO)C(C)C)(C1CCCCC1)C(=O)N2 (single isomer, unassigned) [Compound 2.20a] | 5100 | – |
| Cc1noc(C)c1-c1ccc2c(c1)C(N)(C1CCCCC1)C(=O)N2 (single isomer, unassigned) [Compound 2.37b, 3-Amino-3-cyclohexyl-5-(3,5-dimethylisoxazol-4-yl)indolin-2-one] | 1100 | – |
| COC(=O)[C@@H]1C[C@@H](O)CN1C1(c2ccccc2)C(=O)Nc2ccc(-c3c(C)noc3C)cc21 (single isomer, unassigned) [Compound 2.50b] | 850 | – |
| Cc1noc(C)c1-c1ccc2c(c1)C(c1ccccc1)(N1C[C@@H](O)C[C@H]1CO)C(=O)N2 (single isomer, unassigned) [Compound 2.51a] | 1400 | – |
| Cc1noc(C)c1-c1ccc2c(c1)C(c1ccccc1)(N1C[C@@H](O)C[C@H]1CO)C(=O)N2 (single isomer, unassigned) [Compound 2.51b] | 67 | – |
| Cc1noc(C)c1-c1ccc2c(c1)C(N[C@H](CO)Cc1cnc[nH]1)(c1ccccc1)C(=O)N2 (single isomer, unassigned) [Compound 2.57a, 5-(3,5-Dimethylisoxazol-4-yl)-3-((s)-1-hydroxy-3-(1h-imidazol-5-yl)propan-2-ylamino)-3-phenylindolin-2-one] | 410 | – |
| Cc1noc(C)c1-c1ccc2c(c1)C(N[C@H](CO)Cc1cnc[nH]1)(c1ccccc1)C(=O)N2 (single isomer, unassigned) [Compound 2.57b, 5-(3,5-Dimethylisoxazol-4-yl)-3-((s)-1-hydroxy-3-(1h-imidazol-5-yl)propan-2-ylamino)-3-phenylindolin-2-one] | 41 | – |
| Cc1noc(C)c1-c1ccc2c(c1)C(N)(c1ccc(F)cc1)C(=O)N2 (single isomer, unassigned) [Compound 2.59a, 3-amino-5-(3,5-dimethylisoxazol-4-yl)-3-(4-fluorophenyl)indolin-2-one] | 4100 | – |
| Cc1noc(C)c1-c1ccc2c(c1)C(N)(c1ccc(F)cc1)C(=O)N2 (single isomer, unassigned) [Compound 2.59b, 3-amino-5-(3,5-dimethylisoxazol-4-yl)-3-(4-fluorophenyl)indolin-2-one] | 36 | – |
| Cc1noc(C)c1-c1ccc2c(c1)C(O)(c1ccsc1)C(=O)N2 (single isomer, unassigned) [Compound 4.1a, 5-(3,5-Dimethylisoxazol-4-yl)-3-hydroxy-3-(thiophen-3-yl)indolin-2-one] | – | 4900 |
| COc1ccc(C2(O)C(=O)Nc3ccc(-c4c(C)noc4C)cc32)cc1OC (centres unmarked) [Compound 1.10, 3-(3,4-dimethoxyphenyl)-5-(3,5-dimethylisoxazol-4-yl)-3-hydroxyindolin-2-one] | 1300 | – |

| Compound | IC50 (TR-FRET, read-out: BRD4 IC50) [nM] | IC50 (BRD4 IC50, TR-FRET) [nM] |
| --- | --- | --- |
| Cc1noc(C)c1-c1ccc2c(c1)C(O)(c1cccc3ccccc13)C(=O)N2 (centres unmarked) [Compound 1.11, 5-(3,5-dimethylisoxazol-4-yl)-3-hydroxy-3-(naphthalen-1-yl)indolin-2-one] | 2500 | – |
| Cc1noc(C)c1-c1ccc2c(c1)C(O)(C#Cc1ccccc1)C(=O)N2 (centres unmarked) [Compound 1.12, 5-(3,5-dimethylisoxazol-4-yl)-3-hydroxy-3-(phenylethynyl)indolin-2-one] | 2300 | – |
| CCC1(O)C(=O)Nc2ccc(-c3c(C)noc3C)cc21 (centres unmarked) [Compound 1.20, 5-(3,5-dimethylisoxazol-4-yl)-3-ethyl-3-hydroxyindolin-2-one] | 2300 | – |
| C#CC1(O)C(=O)Nc2ccc(-c3c(C)noc3C)cc21 (centres unmarked) [Compound 1.21, 5-(3,5-dimethylisoxazol-4-yl)-3-ethynyl-3-hydroxyindolin-2-one] | 1200 | – |
| Cc1noc(C)c1-c1ccc2c(c1)C(O)(C(C)(C)C)C(=O)N2 (centres unmarked) [Compound 1.26, 3-tert-butyl-5-(3,5-dimethylisoxazol-4-yl)-3-hydroxyindolin-2-one] | 3200 | – |
| Cc1noc(C)c1-c1ccc2c(c1)C(O)(C(C)C)C(=O)N2 (centres unmarked) [Compound 1.27, 5-(3,5-dimethylisoxazol-4-yl)-3-hydroxy-3-isopropylindolin-2-one] | 2800 | – |
| C=C(C)CC1(O)C(=O)Nc2ccc(-c3c(C)noc3C)cc21 (centres unmarked) [Compound 1.28, 5-(3,5-dimethylisoxazol-4-yl)-3-hydroxy-2-(2-methylallyl)indolin-2-one] | 3900 | – |
| Cc1noc(C)c1-c1ccc2c(c1)C(O)(CCCc1ccccc1)C(=O)N2 (centres unmarked) [Compound 1.29, 5-(3,5-dimethylisoxazol-4-yl)-3-hydroxy-3-(3-phenylpropyl)indolin-2-one] | 1600 | – |
| CC(=O)OC1(c2ccccc2)C(=O)Nc2ccc(-c3c(C)noc3C)cc21 (centres unmarked) [Compound 1.34, 5-(3,5-Dimethylisoxazol-4-yl)-2-oxo-3-phenylindolin-3-yl acetate] | 150 | – |
| Cc1noc(C)c1-c1ccc2c(c1)C(NCCC(C)C)(C1CCCCC1)C(=O)N2 (centres unmarked) [Compound 2.25, 3-cyclohexyl-5-(3,5-dimethylisoxazol-4-yl)-3-(isopentylamino)indolin-2-one] | 3700 | – |
| Cc1noc(C)c1-c1ccc2c(c1)C(C1CCCCC1)(N1CCC[C@@H](O)C1)C(=O)N2 (stereo partly drawn) [Compound 2.30, 3-cyclohexyl-5-(3,5-dimethylisoxazol-4-yl)-3-((R)-3-hydroxypiperidin-1-yl)indolin-2-one] | 61 | – |
| Cc1noc(C)c1-c1ccc2c(c1)C(C1CCCCC1)(N1CCC(O)CC1)C(=O)N2 (centres unmarked) [Compound 2.31, 3-cyclohexyl-5-(3,5-dimethylisoxazol-4-yl)-3-(4-hydroxypiperidin-1-yl)indolin-2-one] | 37 | – |
| Cc1noc(C)c1-c1ccc2c(c1)C(C1CCCCC1)(N1CCCC(O)C1)C(=O)N2 (centres unmarked) [Compound 2.32, 3-cyclohexyl-5-(3,5-dimethylisoxazol-4-yl)-3-(3-hydroxypiperidin-1-yl)indolin-2-one] | 60 | – |
| Cc1noc(C)c1-c1ccc2c(c1)C(C1CCCCC1)(N1CC(O)C1)C(=O)N2 (centres unmarked) [Compound 2.33, 3-cyclohexyl-5-(3,5-dimethylisoxazol-4-yl)-3-(3-hydroxyazetidin-1-yl)indolin-2-one] | 120 | – |
| Cc1noc(C)c1-c1ccc2c(c1)C(N)(C1CCCCC1)C(=O)N2 (centres unmarked) [Compound 2.37, 3-amino-3-cyclohexyl-5-(3,5-dimethylisoxazol-4-yl)indolin-2-one] | 93 | – |
| Cc1noc(C)c1-c1ccc2c(c1)[C@@](N)(C1CCCCC1)C(=O)N2 [Compound 2.37a, (S)-3-amino-3-cyclohexyl-5-(3,5-dimethylisoxazol-4-yl)indolin-2-one] | 54 | – |
| Cc1noc(C)c1-c1ccc2c(c1)C(c1ccccc1)(N1CC[C@@H](NC(=O)OC(C)(C)C)C1)C(=O)N2 (some centres unmarked) [Compound 2.41, Tert-butyl (3r)-1-(5-(3,5-dimethylisoxazol-4-yl)-2-oxo-3-phenylindolin-3-yl)pyrrolidin-3-ylcarbamate] | 440 | – |
| Cc1noc(C)c1-c1ccc2c(c1)C(c1ccccc1)(N1CC[C@@H](N)C1)C(=O)N2 (stereo partly drawn) [Compound 2.42, 3-((R)-3-aminopyrrolidin-1-yl)-5-(3,5-dimethylisoxazol-4-yl)-3-phenylindolin-2-one] | 27 | – |
| Cc1noc(C)c1-c1ccc2c(c1)C(c1ccccc1)(N1CCC[C@@H](NC(=O)OC(C)(C)C)C1)C(=O)N2 (some centres unmarked) [Compound 2.43] | 510 | – |
| Cc1noc(C)c1-c1ccc2c(c1)C(c1ccccc1)(N1CCC[C@H](NC(=O)OC(C)(C)C)C1)C(=O)N2 (some centres unmarked) [Compound 2.44, Tert-butyl (3s)-1-(5-(3,5-dimethylisoxazol-4-yl)-2-oxo-3-phenylindolin-3-yl)piperidin-3-ylcarbamate] | 1100 | – |
| Cc1noc(C)c1-c1ccc2c(c1)C(c1ccccc1)(N1CCC[C@@H](N)C1)C(=O)N2 (stereo partly drawn) [Compound 2.45, 3-((R)-3-aminopiperidin-1-yl)-5-(3,5-dimethylisoxazol-4-yl)-3-phenylindolin-2-one] | 26 | – |
| CCOC(=O)CN1CCN(C2(c3ccccc3)C(=O)Nc3ccc(-c4c(C)noc4C)cc32)CC1 (centres unmarked) [Compound 2.47, Ethyl 2-(4-(5-(3,5-dimethylisoxazol-4-yl)-2-oxo-3-phenylindolin-3-yl)piperazin-1-yl)acetate] | 54 | – |

Reference: US9393232B2 (BeiGene, Ltd., priority 2013, dated 2016)
